The structures appear in SMILES notation. A value given as a limit tells only on which side of the number the result lay.

Broadly, the IC50 is the concentration at which inhibition is half-maximal.

In test [1] the target is T1, human CDK1 catalytic subunit and cyclin B (Homo sapiens, UniProt P06493).
T1 construct: purchased New England Biolabs, Beverly, Mass; 6020; host or cells: insect cells
The experiment in a line: CDK1 screening assay (33P-ATP FlashPlate). Type of test: biochemical. Particulars: 10 μM ATP, 1 hr at 30° C. The method, then: (§1) A kinase reaction mixture was prepared containing 50 mM Tris-HCl pH=8, 10 mM MgCl2, 0.1 mM […], 1 mM DTT, 10 μM ATP, 0.025 μM biotinylated histone-H1 peptide substrate and 0.2 μCuries per well ^33P-γ-ATP (2000-3000 Ci/mmol). 70 μL of the kinase reaction mixture was dispensed into the well of a streptavidin coated FlashPlate™ (Cat. # SMP103, NEN, Boston, Mass.).
(§2) Test compound stock in 100% DMSO (1 μL) was added to the wells resulting in a final concentration of 1% DMSO in the reaction with a 100 μL final reaction volume. Each enzyme was diluted in 50 mM Tris-HCl pH=8.0, 0.1% BSA and 30 μL was added to each well to initiate the reaction. The reaction was incubated for one hour at 30° C. At the end of the 1 hr incubation, the reaction was terminated by aspirating the mixture from the plate and washing the wells twice with PBS containing 100 mM EDTA. The biotinylated peptide substrate became immobilized on the Flashplate™ and the incorporation of ^33P-γ-ATP was measured by reading the plate on a scintillation counter. Inhibition of the enzymatic activity was measured by observing a reduced amount of ^33P-γ-ATP incorporated into the immobilized peptide.
The CDK1 enzyme was isolated from insect cells expressing both the human CDK1 catalytic subunit (Accession number NM_001786) and its positive regulatory subunit cyclin B (New England Biolabs, Beverly, Mass.; Cat. #6020). The assay used 30 ng of the N-terminal biotinylated peptide biotin-[…]-amide (Cyclin dependent kinase 1) per well.
(§3) A maximum and minimum signal for the assay was determined on each plate. The percent inhibition of a test compound was calculated according to the formula: […]
For a series of test concentrations, the IC50 was derived by graphing percent inhibition against the log of the concentrations tested for a given compound with results shown in Table 1.

The target in test [2] is T2, HER2 (GST/HIS6 fusion, amino acids 679 to 1255 of HER-2) (Homo sapiens, UniProt P04626).
T2 construct: GST (Glutathione-S-Transferase) (N); HIS6 (N); thrombin cleavage site (N); purchased Proqinase, Freiburg, Germany
T2 sequence (P04626 679-1255): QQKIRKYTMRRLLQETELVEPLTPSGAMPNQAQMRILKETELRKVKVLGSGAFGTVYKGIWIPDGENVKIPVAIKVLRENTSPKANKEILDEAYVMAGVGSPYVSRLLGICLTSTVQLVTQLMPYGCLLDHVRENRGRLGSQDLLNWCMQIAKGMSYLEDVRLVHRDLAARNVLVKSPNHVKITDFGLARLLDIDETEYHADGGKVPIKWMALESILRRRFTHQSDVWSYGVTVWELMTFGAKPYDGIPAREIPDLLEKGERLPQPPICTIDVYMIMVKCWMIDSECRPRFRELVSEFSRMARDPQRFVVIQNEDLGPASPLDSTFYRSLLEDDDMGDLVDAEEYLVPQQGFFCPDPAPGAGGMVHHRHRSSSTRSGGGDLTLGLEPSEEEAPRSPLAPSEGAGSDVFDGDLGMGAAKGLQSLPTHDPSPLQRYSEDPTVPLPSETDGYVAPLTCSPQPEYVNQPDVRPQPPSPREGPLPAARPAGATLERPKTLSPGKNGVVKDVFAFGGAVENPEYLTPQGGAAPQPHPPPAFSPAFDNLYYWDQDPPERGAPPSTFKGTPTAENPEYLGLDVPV
Kind of test: HER2 screening assay (33P-ATP FlashPlate). It is filed as biochemical. Particulars: 10 μM ATP, 1 hr at 30° C. The protocol:
as §1, §2
The HER2 construct consisted of a fusion of GST (Glutathione-S-Transferase), HIS6 Thrombin and the nucleotides encoding amino acids 679 to 1255 of HER-2 (Accession number M11730) (Proqinase, Freiburg, Germany). The assay used 200 ng of the N-terminal biotinylated peptide biotin-poly(GT) 4:1 (HER2) per well.
as §3

Test [3] concerns the target T3, rat VEGF-R2 kinase domain (polyhistidine fusion, amino acids 786 to 1343) (Rattus norvegicus, UniProt O08775).
T3 construct: amino acids 786 to 1343 of the rat VEGF-R2 kinase domain; polyhistidine (N)
Kind of test: VEGFR2 screening assay (33P-ATP FlashPlate). It is filed as biochemical. The note with it: 10 μM ATP, 1 hr at 30° C. The method, then:
(§4) 70 μL of the kinase reaction mixture was dispensed into the well of a streptavidin coated FlashPlate™ (Cat. # SMP103, NEN, Boston, Mass.).
as §2
The assay used 150 ng of the N-terminal biotinylated peptide biotin-[…]-amide (VEGF-R2) per well.
as §3

Test [4] addresses T4, murine Aurora-A (polyhistidine fusion, full length) (Mus musculus, UniProt P97477).
T4 construct: followed by the full length protein encoding the murine Aurora-A; polyhistidine (N); made in house; host or cells: sf9 insect cells
T4 sequence (P97477 1-395): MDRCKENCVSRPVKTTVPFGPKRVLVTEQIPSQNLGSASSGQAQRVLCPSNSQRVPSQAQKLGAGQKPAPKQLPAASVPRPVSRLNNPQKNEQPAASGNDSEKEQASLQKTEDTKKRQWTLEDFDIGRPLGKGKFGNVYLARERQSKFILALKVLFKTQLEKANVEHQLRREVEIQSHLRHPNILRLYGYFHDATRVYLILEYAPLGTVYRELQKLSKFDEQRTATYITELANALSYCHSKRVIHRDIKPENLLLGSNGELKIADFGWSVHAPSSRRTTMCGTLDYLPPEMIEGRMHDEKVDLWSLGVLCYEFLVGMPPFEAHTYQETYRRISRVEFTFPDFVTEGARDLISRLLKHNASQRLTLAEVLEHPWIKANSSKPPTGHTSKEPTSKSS
The experiment in a line: Aurora-A screening assay (33P-ATP FlashPlate). Type of test: biochemical. The note with it: 10 μM ATP, 1 hr at 30° C. The method, then:
as §4, §2
Aurora-A is a fusion protein containing a polyhistidine tag at the N terminus followed by the full length protein encoding the murine Aurora-A (Accession number GB BC014711) expressed and purified from sf9 insect cells. The assay used 400 ng of the N-terminal biotinylated peptide biotin-[…]-amide (Aurora-A) per well.
as §3

For test [5], the system named is A375 malignant melanoma. Kind of test: Cell proliferation inhibition assay (14C-thymidine incorporation), A375. Type of test: cell-based. Particulars: Homo sapiens, A-375, A375 cells.
Source text: (§5) The ability of a test compound to inhibit unregulated cell proliferation may be determined by measuring incorporation of ^14C-labelled thymidine into newly synthesized DNA within cell lines derived from carcinomas originating from several tissues. Accordingly, the anti-proliferative effect of a compound on cells with a variety of phenotypes may be determined.
(§6) Carcinoma cell lines include those such as HeLa cervical adenocarcinoma (American Type Culture Collection (ATCC), Virginia, Cat. #CCL-2), A375 malignant melanoma (ATCC CRL-1619), and HCT-116 colon carcinoma (CCL-247).
(§7) The carcinoma cells are trypsinized and counted. The cells (3000-8000 count) are added to each well of a 96-well CytoStar tissue culture treated scintillating microplate (Amersham #RPNQ0160) in complete medium (100 μL) and the plate is then incubated in complete medium for 24 hrs at 37° C. in an inert atmosphere containing 5% CO2. Test compound (1 μL) in 100% DMSO is added to the plate test-wells with DMSO only added to control-wells. The plate is incubated in complete medium for a second 24 hr period at 37° C. in an atmosphere containing 5% CO2.
(§8) An aliquot of a solution of Methyl ^14C-thymidine (56 mC/mmol) (NEN #NEC568 or Amersham #CFA532) and complete medium (20 uL to provide 0.2 μCi/well) is then added to each well and the plate is incubated for a third 24 hr period at 37° C. in an atmosphere containing 5% CO2. The plate contents are then discarded, the plate is washed twice with PBS (200 μL) and then PBS (200 μL) is added to each well. The plate is sealed and the degree of methyl ^14C-thymidine incorporation is quantified on a Packard Top Count.
as §3
(§9) For a series of test concentrations, the IC50 was derived by graphing percent inhibition against the log of the concentrations tested for a given compound with results shown in Table 3.
(In general: Incorporation of labelled thymidine or its analogues reports DNA synthesis.)

Test [6] has as its system HCT-116 colon carcinoma. Kind of test: Cell proliferation inhibition assay (14C-thymidine incorporation), HCT-116. Type of test: cell-based. Particulars: Homo sapiens, HCT-116 cells.
Source text: as §5, §6, §7, §8, §3, §9

Test [7] concerns HeLa cervical adenocarcinoma. Kind of test: Cell proliferation inhibition assay (14C-thymidine incorporation), HeLa. Type of test: cell-based. The note with it: Homo sapiens, HeLa cells.
Source text: as §5, §6, §7, §8, §3, §9

T1 sequence (P06493 whole entry): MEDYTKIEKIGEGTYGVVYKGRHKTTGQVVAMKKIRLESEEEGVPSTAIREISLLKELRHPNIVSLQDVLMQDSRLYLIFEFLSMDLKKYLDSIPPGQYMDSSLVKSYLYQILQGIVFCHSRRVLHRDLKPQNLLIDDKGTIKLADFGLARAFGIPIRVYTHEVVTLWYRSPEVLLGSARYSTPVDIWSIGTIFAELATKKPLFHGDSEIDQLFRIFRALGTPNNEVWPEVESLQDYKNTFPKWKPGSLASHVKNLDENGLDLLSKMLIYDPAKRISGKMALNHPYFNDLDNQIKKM
T1 sequence (P14635 whole entry partner): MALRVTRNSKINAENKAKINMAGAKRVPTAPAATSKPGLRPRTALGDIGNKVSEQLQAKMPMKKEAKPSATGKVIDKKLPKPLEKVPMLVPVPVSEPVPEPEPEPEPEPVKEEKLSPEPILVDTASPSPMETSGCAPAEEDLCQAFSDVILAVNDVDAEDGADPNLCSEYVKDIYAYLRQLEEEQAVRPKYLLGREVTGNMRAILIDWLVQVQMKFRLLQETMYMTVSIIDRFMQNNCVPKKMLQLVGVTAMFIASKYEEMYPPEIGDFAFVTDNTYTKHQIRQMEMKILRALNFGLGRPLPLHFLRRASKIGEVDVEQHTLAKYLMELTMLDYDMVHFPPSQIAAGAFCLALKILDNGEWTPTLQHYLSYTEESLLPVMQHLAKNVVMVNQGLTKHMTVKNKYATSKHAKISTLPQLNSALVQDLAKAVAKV
T3 sequence (O08775 786-1343): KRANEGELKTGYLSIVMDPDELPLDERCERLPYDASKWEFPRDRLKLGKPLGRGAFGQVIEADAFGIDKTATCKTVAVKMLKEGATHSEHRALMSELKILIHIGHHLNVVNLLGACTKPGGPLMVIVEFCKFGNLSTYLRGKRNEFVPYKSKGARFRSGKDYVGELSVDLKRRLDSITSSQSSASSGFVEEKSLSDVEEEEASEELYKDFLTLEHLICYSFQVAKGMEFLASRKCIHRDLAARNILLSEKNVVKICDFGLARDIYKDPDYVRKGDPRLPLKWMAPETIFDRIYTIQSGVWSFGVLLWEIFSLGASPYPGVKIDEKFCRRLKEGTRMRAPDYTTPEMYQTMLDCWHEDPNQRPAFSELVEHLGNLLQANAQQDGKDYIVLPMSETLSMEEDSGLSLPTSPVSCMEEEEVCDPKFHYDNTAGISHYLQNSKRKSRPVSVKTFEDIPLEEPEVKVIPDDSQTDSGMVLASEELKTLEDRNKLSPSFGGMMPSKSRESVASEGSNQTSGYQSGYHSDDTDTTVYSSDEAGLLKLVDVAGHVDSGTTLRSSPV

As for `CCNCc1cncc(/C=C/c2c[nH]nc2-c2nc(C(F)(F)F)c[nH]2)c1` [Cpd 1, ethyl-(5-{2-[3-(4-trifluoromethyl-1H-imidazol-2-yl)-1H-pyrazol-4-yl]-vinyl}-pyridin-3-ylmethyl)-amine], the IC50 in test [1] was 18 nM; in test [2] it was above 100 µM; in test [3] it was around 10 µM; in test [4] it was above 10000 nM; in test [5], 7.44 µM; in test [6], 1.75 µM. This molecule also yielded an IC50 in test [7] of 3.18 µM.
`FC(F)(F)c1c[nH]c(-c2n[nH]cc2/C=C/c2cccnc2)n1` [Cpd 2, 3-{2-[3-(4-trifluoromethyl-1H-imidazol-2-yl)-1H-pyrazol-4-yl]-vinyl}-pyridine]: the IC50 in test [1] was 483 nM; in test [2] it was above 100 µM; in test [3], 29.4 µM; in test [4] it was 117 nM; in test [5] it was 46.5 µM; in test [6], 23.8 µM. In addition, the IC50 in test [7] is above 10 µM.
In the case of `N#Cc1c[nH]c(-c2n[nH]cc2/C=C/c2cccnc2)n1` [Cpd 3, 2-[4-(2-pyridin-3-yl-vinyl)-1H-pyrazol-3-yl]-1H-imidazole-4-carbonitrile], the IC50 in test [1] is 704 nM; in test [2], above 100 µM; in test [3], above 10 µM; in test [4] it was above 10000 nM; in test [5] it was above 10 µM; in test [6] it was 70.7 µM. This molecule also displayed an IC50 in test [7] above 10 µM.
Take `FC(F)(F)c1cnc(-c2n[nH]cc2C=Cc2cncc3ccccc23)[nH]1` [Cpd 4, 4-{2-[3-(4-trifluoromethyl-1H-imidazol-2-yl)-1H-pyrazol-4-yl]-vinyl}-isoquinoline]: the IC50 in test [1] was determined as 113 nM; in test [3], 3.06 µM; in test [4] it was 297 nM; in test [5], 5.59 µM; in test [6] it was 2.92 µM; in test [7], 3.58 µM.

For the origin of these results see US7635703B2, “Imidazole substituted pyrazole kinase inhibitors” (Janssen Pharmaceutica N.V., priority 2006, dated 2009).
